Measured values as given in US6117841A, “Substituted peptidylamine calcium channel blockers” (Warner-Lambert Company, priority 1999, dated 2000).
Read-outs that look alike come from different tables or passages of the source.

Target: T1, N-type Ca^2+ Channel (Homo sapiens, UniProt Q00975)
T1 construct: host or cells: IMR-32 cells differentiated with dibutyryl cAMP and bromodeoxyuridine
Assay: Measurement of N-type Ca2+ channel blocking potencies in IMR-32 cells using the fluorescent Ca2+ indicator Indo-1
Type: cell-based
Details: IMR-32 cells
Description: Measurement of N-type Ca^2+ Channel Blocking Potencies of Compounds in IMR-32 Cells Using the Fluorescent Ca^2 + Indicator Indo-1
IMR-32 cells are a human tumoral cell line of neural origin. […] Calcium flux into these cells may be induced by stimulation with elevated potassium concentrations. The L-channel component of calcium flux may be blocked by adding 5 μM nitrendipine. The remaining component of calcium entry into the IMR-32 cells is due to calcium flux through N-type calcium channels. Intracellular calcium concentrations are measured using the fluorescent calcium indicator Indo-1. The effect of drug concentration on calcium uptake is studied.
The IMR-32 cell line was obtained from the American Type Culture Collection (Rockville, Md.). Cells were grown in Eagle's Minimum Essential Medium with Earle's salts supplemented with 10% fetal bovine serum, 2 mM L-Gln and antibiotic/antimycotic mixture (Gibco). At approximately 80% confluency, differentiation was induced by the addition of 1 mM dibutyryl cAMP and 2.5 μM bromodeoxyuridine to the medium. After 7 to 13 days of differentiation, cells were detached using 0.5 mM EDTA and loaded with 5 μM Indo-1 acetoxymethyl ester (Molecular Probes, Eugene, Oreg.) at 30° C. for 45 minutes. Loaded cells were washed twice, resuspended (~10^7 cells/mL) in assay buffer (10 mM HEPES/Tris pH 7.4 in Hank's Balanced Salt Solution without bicarbonate or phenol red containing 0.5% bovine serum albumin) and kept on ice until use. Fluorescence measurements were carried out in a Photon Technology International (PTI, South Brunswick, N.J.) Model RF-F3004 spectrofluorometer with dual emission monochromators using excitation at 350 nm and emission at 400 and 490 nm. The instrument was equipped with a thermostated cuvette holder with stirring capabilities as well as with a computer-controlled pump which allowed for reagent addition during measurement. Instrument control and data collection was done by PTI's OSCAR software running on an IBM compatible computer. Different concentrations of the test compounds (60 μL in dimethyl sulfoxide) were added to 5.94 mL of assay buffer containing approximately 3×10^6 loaded cells, and 5 μM nitrendipine (in 30 μL EtOH) to block L-type Ca^2+ channels. Samples were incubated for 10 minutes at 30° C. and then aliquoted into three 10×10 mm disposable acrylic cuvettes. Emission signals at 400 and 490 nm were acquired from each cuvette at 30° C. for 50 seconds. At 20 seconds after the start of reading, cells were depolarized by the addition of 160 μL of stimulation solution (1 M KCl, 68 mM CaCl2) to the cuvette via the computer-controlled pump. Ratio of dual emission signals (400 nm/ 490 nm), which is proportional to intracellular Ca^2+ concentration, was plotted against time, and the difference between maximal response after stimulation and basal value (before stimulation) was determined. Values obtained in this way were plotted as a function of drug concentration. IC50 values of test compounds were calculated by fitting a four-parameter logistic function to the data using the least squares method.

[1] = K+ depolarization, 5 μM nitrendipine to block L-type channels, read-out: IMR 32 IC50
[2] = 5 μM nitrendipine, Examples 116-140, read-out: IMR 32% of Blockade @

T1 sequence (Q00975 whole entry): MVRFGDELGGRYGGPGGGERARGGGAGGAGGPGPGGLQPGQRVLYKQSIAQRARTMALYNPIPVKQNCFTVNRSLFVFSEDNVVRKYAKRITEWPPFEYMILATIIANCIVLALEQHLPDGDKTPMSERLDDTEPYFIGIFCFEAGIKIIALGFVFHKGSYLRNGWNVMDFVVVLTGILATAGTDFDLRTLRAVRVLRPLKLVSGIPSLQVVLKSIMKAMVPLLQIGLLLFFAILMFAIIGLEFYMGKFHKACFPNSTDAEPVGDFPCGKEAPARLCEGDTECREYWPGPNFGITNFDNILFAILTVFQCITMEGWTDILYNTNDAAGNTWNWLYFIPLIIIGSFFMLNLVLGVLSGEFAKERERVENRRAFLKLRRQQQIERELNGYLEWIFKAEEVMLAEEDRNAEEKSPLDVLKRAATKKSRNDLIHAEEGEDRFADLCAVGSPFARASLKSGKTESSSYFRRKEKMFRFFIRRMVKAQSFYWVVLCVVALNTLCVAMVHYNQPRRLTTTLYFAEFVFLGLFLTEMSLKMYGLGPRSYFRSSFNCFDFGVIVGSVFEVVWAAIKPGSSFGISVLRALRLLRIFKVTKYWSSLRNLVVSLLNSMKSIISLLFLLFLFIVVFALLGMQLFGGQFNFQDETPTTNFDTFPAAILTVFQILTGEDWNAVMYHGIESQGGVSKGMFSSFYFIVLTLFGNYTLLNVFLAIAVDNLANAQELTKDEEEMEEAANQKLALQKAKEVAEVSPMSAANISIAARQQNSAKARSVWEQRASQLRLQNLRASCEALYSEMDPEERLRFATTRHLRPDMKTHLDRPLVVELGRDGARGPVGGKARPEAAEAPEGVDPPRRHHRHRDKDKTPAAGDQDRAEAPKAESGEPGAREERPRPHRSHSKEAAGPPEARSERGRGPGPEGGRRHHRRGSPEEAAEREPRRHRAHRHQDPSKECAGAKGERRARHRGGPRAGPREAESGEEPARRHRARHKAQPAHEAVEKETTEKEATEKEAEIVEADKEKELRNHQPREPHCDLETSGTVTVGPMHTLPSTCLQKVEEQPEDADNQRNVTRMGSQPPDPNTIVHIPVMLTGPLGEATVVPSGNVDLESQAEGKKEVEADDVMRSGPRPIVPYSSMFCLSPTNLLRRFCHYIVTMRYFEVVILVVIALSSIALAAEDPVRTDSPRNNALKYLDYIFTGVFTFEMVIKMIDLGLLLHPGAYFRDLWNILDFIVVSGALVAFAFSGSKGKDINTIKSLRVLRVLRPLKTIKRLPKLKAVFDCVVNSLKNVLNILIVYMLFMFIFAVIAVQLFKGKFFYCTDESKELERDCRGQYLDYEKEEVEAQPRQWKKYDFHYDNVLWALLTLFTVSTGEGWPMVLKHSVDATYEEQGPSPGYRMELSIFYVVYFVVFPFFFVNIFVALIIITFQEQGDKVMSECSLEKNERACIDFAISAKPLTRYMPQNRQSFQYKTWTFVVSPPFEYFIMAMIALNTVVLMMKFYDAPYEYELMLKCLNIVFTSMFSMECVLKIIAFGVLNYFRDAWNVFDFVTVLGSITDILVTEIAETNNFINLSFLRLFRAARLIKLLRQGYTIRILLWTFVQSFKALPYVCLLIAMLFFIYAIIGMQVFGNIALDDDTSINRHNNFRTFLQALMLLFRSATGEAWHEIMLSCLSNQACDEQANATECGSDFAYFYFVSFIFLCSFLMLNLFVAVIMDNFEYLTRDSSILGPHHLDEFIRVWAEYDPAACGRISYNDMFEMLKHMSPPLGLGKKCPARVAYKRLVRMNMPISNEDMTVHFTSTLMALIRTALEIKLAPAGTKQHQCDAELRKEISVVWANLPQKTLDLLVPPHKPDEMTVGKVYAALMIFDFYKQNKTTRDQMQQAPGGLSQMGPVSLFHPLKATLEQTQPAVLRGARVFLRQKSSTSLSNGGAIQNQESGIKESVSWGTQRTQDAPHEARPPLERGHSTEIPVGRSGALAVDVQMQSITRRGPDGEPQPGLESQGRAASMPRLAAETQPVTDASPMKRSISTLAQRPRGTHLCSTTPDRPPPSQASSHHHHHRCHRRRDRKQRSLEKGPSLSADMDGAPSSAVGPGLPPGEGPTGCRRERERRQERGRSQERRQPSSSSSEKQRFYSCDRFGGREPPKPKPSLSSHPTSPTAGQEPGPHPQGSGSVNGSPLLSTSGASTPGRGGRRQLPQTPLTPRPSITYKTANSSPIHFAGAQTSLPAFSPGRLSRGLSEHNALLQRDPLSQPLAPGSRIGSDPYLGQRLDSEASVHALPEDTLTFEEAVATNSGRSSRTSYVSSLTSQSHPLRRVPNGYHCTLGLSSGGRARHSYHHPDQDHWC
T1 sequence (P54284 whole entry partner): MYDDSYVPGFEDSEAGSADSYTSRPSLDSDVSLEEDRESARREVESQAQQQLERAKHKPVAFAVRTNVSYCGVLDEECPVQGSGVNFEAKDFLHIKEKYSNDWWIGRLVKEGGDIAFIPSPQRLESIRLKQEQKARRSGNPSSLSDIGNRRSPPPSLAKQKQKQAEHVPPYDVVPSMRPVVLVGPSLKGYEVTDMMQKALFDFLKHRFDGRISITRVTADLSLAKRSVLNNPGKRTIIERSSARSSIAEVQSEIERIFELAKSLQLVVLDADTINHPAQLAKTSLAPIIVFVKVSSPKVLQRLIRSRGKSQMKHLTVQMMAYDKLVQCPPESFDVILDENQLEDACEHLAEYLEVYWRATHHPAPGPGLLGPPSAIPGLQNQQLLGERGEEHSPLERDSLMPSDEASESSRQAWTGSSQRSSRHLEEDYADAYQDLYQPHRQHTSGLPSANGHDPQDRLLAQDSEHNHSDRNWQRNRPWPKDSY
T1 sequence (P54289 25-946 partner limits assumed): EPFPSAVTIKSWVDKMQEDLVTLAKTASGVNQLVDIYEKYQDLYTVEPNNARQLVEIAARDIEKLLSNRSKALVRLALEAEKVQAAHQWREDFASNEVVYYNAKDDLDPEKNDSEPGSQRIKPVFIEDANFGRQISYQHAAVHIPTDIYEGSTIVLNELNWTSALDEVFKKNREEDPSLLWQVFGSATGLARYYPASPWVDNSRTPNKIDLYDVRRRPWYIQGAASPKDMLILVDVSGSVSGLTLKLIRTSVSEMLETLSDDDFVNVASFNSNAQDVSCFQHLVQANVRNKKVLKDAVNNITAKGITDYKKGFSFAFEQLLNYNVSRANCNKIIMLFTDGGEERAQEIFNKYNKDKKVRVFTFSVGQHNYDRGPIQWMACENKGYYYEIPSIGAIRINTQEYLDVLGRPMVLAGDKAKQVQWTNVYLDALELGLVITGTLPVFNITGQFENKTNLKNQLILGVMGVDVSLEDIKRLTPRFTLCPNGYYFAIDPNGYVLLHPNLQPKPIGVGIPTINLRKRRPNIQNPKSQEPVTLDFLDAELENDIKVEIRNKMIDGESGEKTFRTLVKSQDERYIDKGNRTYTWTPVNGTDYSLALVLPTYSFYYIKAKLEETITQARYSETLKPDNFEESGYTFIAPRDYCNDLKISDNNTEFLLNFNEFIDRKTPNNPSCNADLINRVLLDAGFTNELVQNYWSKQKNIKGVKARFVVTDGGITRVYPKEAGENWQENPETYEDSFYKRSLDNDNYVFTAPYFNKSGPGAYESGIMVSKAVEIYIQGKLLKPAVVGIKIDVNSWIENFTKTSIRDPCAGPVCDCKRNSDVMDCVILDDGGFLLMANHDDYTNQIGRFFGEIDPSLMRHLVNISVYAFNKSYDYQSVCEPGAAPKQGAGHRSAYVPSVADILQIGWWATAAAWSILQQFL
T1 sequence (P54289 947-1103 partner limits assumed): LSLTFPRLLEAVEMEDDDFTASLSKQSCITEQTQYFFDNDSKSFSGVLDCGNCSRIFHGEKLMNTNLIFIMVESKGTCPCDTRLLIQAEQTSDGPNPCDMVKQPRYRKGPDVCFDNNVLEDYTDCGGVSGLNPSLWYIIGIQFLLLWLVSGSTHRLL

Structure (SMILES) | IC50 [1] [nM] | further results
CC(C)C[C@H](NCc1ccc(C(C)(C)C)cc1)C(=O)N[C@@H](Cc1ccc(OCc2ccccc2)cc1)C(=O)OC(C)(C)C (relative stereo) [Example 32, [S-(R*,R*)]-3-(4-Benzyloxy-phenyl)-2-[2-(4-tert-butyl-benzylamino)-4-methyl-pentanoylamino]-propionic acid tert-butyl ester] | 250 | 
CC(C)CC(C(=O)NC(Cc1ccc(OCc2ccccc2)cc1)C(=O)N1CCCCC1)N1CCOCC1 (stereo not drawn) [Example 70, [S-(R*,R*)]-4-Methyl-2-morpholin-4-yl-pentanoic acid [1-(4-benzyloxy-benzyl)-2-oxo-2-piperidin-1-yl-ethyl]-amide] | 2300 | 
CC(C)CC(C(=O)NC(Cc1ccc(OCc2ccccc2)cc1)C(=O)NCCNCCO)N(C)C (stereo not drawn) [Example 140, [S-(R*,R*)]-2-Dimethylamino-4-methyl-pentanoic acid {2-(4-benzyloxy-phenyl)-1-[2-(2-hydroxy-ethylamino)-ethylcarbamoyl]-ethyl}-amide] |  | IC50 [2]: 5100 nM
CC(C)CCNC(C)(C)C(=O)N[C@@H](Cc1ccc(OCc2ccccc2)cc1)C(=O)NC(C)(C)C [Example 104, (S)-N-[2-(4-Benzyloxy-phenyl)-1-tert-butylcarbamoyl-ethyl]-2-(3-methyl-butylamino)-isobutyramide] | 1300 | 
CC(C)C[C@@H](C(=O)N[C@@H](Cc1ccc(OCc2ccccc2)cc1)C(=O)NC(C)(C)C)N(C)C(C)CO (mixture of isomers) [Example 88, [S-[R*,R*,(RS)]]-2-[(2-Hydroxy-1-methyl-ethyl)-methyl-amino]-4-methyl-pentanoic acid [2-(4-benzyloxy-phenyl)-1-tert-butylcarbamoyl-ethyl]-amide] |  | IMR 32 % of Blockade @ 1 μM (5 μM nitrendipine): 30%
CC(C)C[C@@H](C(=O)N[C@@H](Cc1ccc(OCc2ccccc2)cc1)C(=O)N1CCCCC1)N(C)CC1CCCCC1 (relative stereo) [Example 26, [S-(R*,R*)]-2-(Cyclohexylmethyl-methyl-amino)-4-methyl-pentanoic acid [^2-(^4-benzyloxy-phenyl)-1-(piperidine-1-carbonyl)-ethyl]-amide] | 600 | 
CC(C)C[C@H](NC1CCOCC1)C(=O)N[C@@H](Cc1ccc(OCc2ccccc2)cc1)C(=O)NCCCn1ccnc1 (relative stereo) [Example 129, [S-(R*,R*)]-4-Methyl-2-(tetrahydropyran-4-yl-amino)-pentanoic acid [2-(4-benzyloxy-phenyl)-1-(3-imidazol-1-yl-propylcarbamoyl)-ethyl]-amide] |  | IC50 [2]: 6300 nM
CC(C)CC(NC1CCOCC1)C(=O)NC(Cc1ccc(OCc2ccccc2)cc1)C(=O)NC(C)(C)C (stereo not drawn) [Example 78, [S-(R*,R*)]-4-Methyl-2-(tetrahydro-pyran-4-ylamino)-pentanoic acid [2-(4-benzyloxy-phenyl)-1-tert-butylcarbamoyl-ethyl]-amide] | 1600 | 
CC(C)C[C@@H](C(=O)N[C@@H](Cc1ccc(OCc2ccccc2)cc1)C(=O)NC1CCN(Cc2ccccc2)CC1)N(C)Cc1ccc(C(C)(C)C)cc1 (relative stereo) [Example 17, S-(R*,R*)]-2-[(4-tert-Butyl-benzyl)-methyl-amino]-4-methyl-pentanoic acid [2-(4-benzyloxy-phenyl)-1-(1-benzyl-piperidin-4-yl-carbamoyl)-ethyl]-amide] | 440 | 
CC(C)CC(NC1CCOCC1)C(=O)NC(Cc1ccc(OCc2ccccc2)cc1)C(=O)NC(C)(C)CO (stereo not drawn) [Example 73, [S-(R*,R*)]-4-Methyl-2-(tetrahydro-pyran4-ylamino)-pentanoic acid [2-(4-benzyloxy-phenyl)-1-(2-hydroxy-1,1-dimethyl-ethylearbamoyl)-ethyl]-amide] | 2700 | 
CC(C)C[C@@H](C(=O)N[C@@H](Cc1ccc(OCc2ccccc2)cc1)C(=O)NC(C)(C)C)N1CCCCC1 (relative stereo) [Example 99, [S-(R*,R*)]-4-Methyl-2-piperidin-1-yl-pentanoic acid [2-(4-benzyloxy-phenyl)-1-tert-butylcarbamoyl-ethyl]-amide] | 1400 | 
CCC(COC)NC(=O)[C@H](Cc1ccc(OCc2ccccc2)cc1)NC(=O)[C@H](CC(C)C)NC1CCOCC1 (relative stereo) [Example 75, [S-(R*,R*)]-4-Methyl-2-(tetrahydro-pyran-4-ylamino)-pentanoic acid [2-(4-benzyloxy-phenyl)-1-(1-methoxymethyl-propylcarbamoyl)-ethyl]-amide] | 2400 | 
CC(C)C[C@@H](C(=O)N[C@@H](Cc1ccc(OCc2ccccc2)cc1)C(=O)NC(C)(C)CO)N1CCOCC1 (relative stereo) [Example 123, [S-(R*,R*)]-4-Methyl-2-morpholin-4-yl-pentanoic acid [2-(4-benzyloxy-phenyl)-1-(2-hydroxy-1,1-dimethyl-ethylcarbamoyl)-ethyl]-amide] |  | IC50 [2]: 13000 nM
CC(C)C[C@@H](C(=O)N[C@@H](Cc1ccc(OCc2ccccc2)cc1)C(=O)NC1CCN(Cc2ccccc2)CC1)N(C)C (relative stereo) [Example 5, [S-(R*,R*)]-2-Dimethylamino-4-methyl-pentanoic acid [2-(4-benzyloxy-phenyl)-1-(1-benzyl-piperidin-4-yl-carbamoyl)-ethyl]-amide] |  | IMR 32 % of Blockade @ 1 μM (5 μM nitrendipine): 24%; IMR 32 % of Blockade @ 10 μM (10 μM, 5 μM nitrendipine): 81%
CC(C)C[C@@H](C(=O)N[C@@H](Cc1ccc(OCc2ccccc2)cc1)C(=O)NC(C)(C)C)N1CCOCC1 (relative stereo) [Example 94, [S-(R*,R*)]-4-Methyl-2-morpholin-4-yl-pentanoic acid [2-(4-benzyloxy-phenyl)-1-tert-butylcarbamoyl-ethyl]-amide] |  | IMR 32 % of Blockade @ 1 μM (5 μM nitrendipine): 24%

Now from value to molecule, other results behind:

IC50 [1] [nM] | Structure (SMILES) | further results
2400 | CC(C)CCN(C)[C@@H](CC(C)C)C(=O)N[C@@H](Cc1ccc(OCc2ccccc2)cc1)C(=O)NCCN1CCCC1 (relative stereo) [Example 64, [S-(R*,R*)]-4-Methyl-2-[methyl-(3-methyl-butyl)-amino]-pentanoic acid [2-(4-benzyloxy-phenyl)-1-(2-pyrrolidin-1-yl-ethylcarbamoyl)-ethyl]-amide] | 
1100 | CC(C)CCN(C)[C@@H](CC(C)C)C(=O)N[C@@H](Cc1ccc(OCc2ccccc2)cc1)C(=O)N1CCC(O)CC1 (relative stereo) [Example 65, [S-(R*,R*)]-4-Methyl-2-[methyl-(3-methyl-butyl)-amino]-pentanoic acid [1-(4-benzyloxy-benzyl)-2-(4-hydroxy-piperidin-1-yl)-2-oxo-ethyl]-amide] | 
800 | CCC(COC)NC(=O)[C@H](Cc1ccc(OCc2ccccc2)cc1)NC(=O)[C@H](CC(C)C)N(C)CCC(C)C (relative stereo) [Example 63, [S-(R*,R*)]-4-Methyl-2-[methyl-(3-methyl-butyl)-amino]-pentanoic acid [2-(4-benzyloxy-phenyl)-1-(1-methoxymethyl-propylcarbamoyl)-ethyl]-amide] | 
2800 | CC(C)C[C@@H](C(=O)N[C@@H](Cc1ccc(OCc2ccccc2)cc1)C(=O)NC(C)(C)C)N(C)C(C)C (relative stereo) [Example 86, [S-(R*,R*)]-2-(Isopropyl-methyl-amino)-4-methyl-pentanoic acid [2-(4-benzyloxy-phenyl)-1-tert-butylcarbamoyl-ethyl]-amide] | 
200 | CC(C)CCN(C)[C@@H](CC(C)C)C(=O)NC(Cc1ccc(OCc2ccccc2)cc1)C(=O)NCCNCc1ccccc1 (stereo in doubt) [Example 60, [S(R*,R*)]-4-Methyl-2-[methyl-(3-methyl-butyl)-amino]-pentanoic acid [1-(2-benzylamino-ethylcarbamoyl)-2-(4-benzyloxy-phenyl)-ethyl]-amide] | 
160 | CC(C)C[C@@H](C(=O)N[C@@H](Cc1ccc(OCc2ccccc2)cc1)C(=O)NC(C)(C)C)N(C)Cc1ccc(Br)cc1 (relative stereo) [Example 81, [S-(R*,R*)]-2-[(4-Bromo-benzyl)-methyl-amino]4-methyl-pentanoic acid [2-(4-benzyloxy-phenyl)-1-tert-butylcarbamoyl-ethyl]-amide] | 
